The values that follow are results of earlier work, collected in paper PMC9888480, “Carboranyl-1,8-naphthalimide intercalators induce lysosomal membrane permeabilization and ferroptosis in cancer cell lines” (Journal of Enzyme Inhibition and Medicinal Chemistry, 2023).

As a reminder, the IC50 is the concentration that inhibits the measured activity by half. As usually defined, the ΔTm is the change in melting temperature against a reference sample.

For one series, the target named is human topoisomerase IIα. Details: method as in PMID 35562989. Conditions: earlier study of 4-carboranyl-1,8-naphthalimides; read-out: anti-Topo II activity IC50; cited from earlier work.
A further series deals with ct-DNA. Details: method as in PMID 33803403. Particulars: unmodified mitonafide and pinafide; cited from earlier work.
Another series deals with HepG2. Details: method as in PMID 31776032. Conditions: footnote of Table 2, reference compounds; cited from earlier work.

As to `CN(C)CCN1C(=O)c2cccc3cc([N+](=O)[O-])cc(c23)C1=O` [mitonafide], the half-maximal inhibitory concentration (IC50) was 5.13 µM at human topoisomerase IIα and < 1 µM in the series on HepG2. In addition, the ΔTm in the series with ct-DNA was 5.17 °C.
